In PMC6658524, “Lysosomal degradation of newly formed insulin granules contributes to β cell failure in diabetes” (Nature Communications, 2019):
pIC50: −log10 of the molar value.

Legend:
mTOR = mTOR (Homo sapiens, UniProt P42345); assay: 60-kinase selectivity panel, % inhibition at […]; assay type: biochemical
p38δ = target: T1, p38δ (Homo sapiens, UniProt O15264); assay: biochemical; design: Kinase inhibition by mobility shift assay (Caliper)
T1 construct: gene MAPK13

p38α = target: T2, p38α (Homo sapiens, UniProt Q16539); assay: biochemical; design: Kinase inhibition by mobility shift assay (Caliper)
T2 construct: gene MAPK14

p38γ (SAPK3) = target: T3, p38γ (SAPK3) (Homo sapiens, UniProt P53778); assay: biochemical; design: Kinase inhibition by mobility shift assay (Caliper)
T3 construct: gene MAPK12

ALK(h) = ALK(h) (Homo sapiens, UniProt Q9UM73); assay: biochemical; design: Eurofins KinaseProfiler panel of 60 kinases, per cent inhibition
Text: (§1) A more detailed account of the discovery, chemistry and biochemical properties of this novel class of selective p38δ inhibitors will be given elsewhere.

AMPKα2(h) = target: T4, AMPKα2(h) (Homo sapiens, UniProt P54646); assay: biochemical; design: Eurofins KinaseProfiler panel of 60 kinases, per cent inhibition
T4 construct: gene PRKAA2
Text: as §1

CDK9/cyclin T1(h) = CDK9/cyclin T1(h) (Homo sapiens, UniProt P50750); assay: biochemical; design: Eurofins KinaseProfiler panel of 60 kinases, per cent inhibition
Text: as §1

Flt1(h) = Flt1(h) (Homo sapiens, UniProt P17948); assay: biochemical; design: Eurofins KinaseProfiler panel of 60 kinases, per cent inhibition
Flt1(h), sequence (P17948 whole entry): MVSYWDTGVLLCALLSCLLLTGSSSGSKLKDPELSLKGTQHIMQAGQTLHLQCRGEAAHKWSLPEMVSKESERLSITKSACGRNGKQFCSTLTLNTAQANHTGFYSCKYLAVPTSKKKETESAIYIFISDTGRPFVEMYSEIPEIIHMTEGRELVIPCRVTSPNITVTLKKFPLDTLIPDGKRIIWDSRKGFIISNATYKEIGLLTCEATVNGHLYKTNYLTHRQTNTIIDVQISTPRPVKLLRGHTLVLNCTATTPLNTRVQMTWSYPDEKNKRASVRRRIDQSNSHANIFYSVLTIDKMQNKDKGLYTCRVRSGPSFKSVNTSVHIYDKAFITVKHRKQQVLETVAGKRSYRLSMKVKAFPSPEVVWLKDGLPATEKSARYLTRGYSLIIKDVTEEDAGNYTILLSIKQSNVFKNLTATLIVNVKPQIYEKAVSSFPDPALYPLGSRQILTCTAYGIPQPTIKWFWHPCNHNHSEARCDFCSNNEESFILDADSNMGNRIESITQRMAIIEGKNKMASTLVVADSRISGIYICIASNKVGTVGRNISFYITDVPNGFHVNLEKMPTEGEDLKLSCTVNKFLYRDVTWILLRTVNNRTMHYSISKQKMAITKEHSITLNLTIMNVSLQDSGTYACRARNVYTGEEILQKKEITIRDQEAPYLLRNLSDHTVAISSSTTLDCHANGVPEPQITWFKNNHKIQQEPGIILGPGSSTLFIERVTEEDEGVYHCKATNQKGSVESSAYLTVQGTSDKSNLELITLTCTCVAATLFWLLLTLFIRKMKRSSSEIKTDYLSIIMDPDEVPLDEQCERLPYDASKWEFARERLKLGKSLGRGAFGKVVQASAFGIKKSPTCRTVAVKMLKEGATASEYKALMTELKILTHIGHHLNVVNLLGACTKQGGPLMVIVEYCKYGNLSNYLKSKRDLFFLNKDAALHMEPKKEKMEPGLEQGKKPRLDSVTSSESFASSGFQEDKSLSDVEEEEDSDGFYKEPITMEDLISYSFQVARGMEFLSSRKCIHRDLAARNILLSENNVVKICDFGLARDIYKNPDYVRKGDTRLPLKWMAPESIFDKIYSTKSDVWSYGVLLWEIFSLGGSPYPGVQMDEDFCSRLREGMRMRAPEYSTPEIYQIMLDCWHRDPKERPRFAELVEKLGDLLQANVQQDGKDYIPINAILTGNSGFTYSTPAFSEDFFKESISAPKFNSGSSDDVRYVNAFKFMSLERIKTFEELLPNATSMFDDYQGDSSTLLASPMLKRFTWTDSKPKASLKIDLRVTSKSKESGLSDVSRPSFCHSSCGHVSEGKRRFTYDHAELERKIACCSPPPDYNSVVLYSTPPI
Text: as §1

Flt3(h) = Flt3(h) (Homo sapiens, UniProt P36888); assay: biochemical; design: Eurofins KinaseProfiler panel of 60 kinases, per cent inhibition
Text: as §1

GSK3β(h) = target: T5, GSK3β(h) (Homo sapiens, UniProt P49841); assay: biochemical; design: Eurofins KinaseProfiler panel of 60 kinases, per cent inhibition
T5 construct: gene GSK3B
Text: as §1

Hck(h) activated = Hck(h) activated (Homo sapiens, UniProt P08631); assay: biochemical; design: Eurofins KinaseProfiler panel of 60 kinases, per cent inhibition
Text: as §1

IKKε(h) = target: T6, IKKε(h) (Homo sapiens, UniProt Q14164); assay: biochemical; design: Eurofins KinaseProfiler panel of 60 kinases, per cent inhibition
T6 construct: gene IKBKE
T6 sequence (Q14164 whole entry): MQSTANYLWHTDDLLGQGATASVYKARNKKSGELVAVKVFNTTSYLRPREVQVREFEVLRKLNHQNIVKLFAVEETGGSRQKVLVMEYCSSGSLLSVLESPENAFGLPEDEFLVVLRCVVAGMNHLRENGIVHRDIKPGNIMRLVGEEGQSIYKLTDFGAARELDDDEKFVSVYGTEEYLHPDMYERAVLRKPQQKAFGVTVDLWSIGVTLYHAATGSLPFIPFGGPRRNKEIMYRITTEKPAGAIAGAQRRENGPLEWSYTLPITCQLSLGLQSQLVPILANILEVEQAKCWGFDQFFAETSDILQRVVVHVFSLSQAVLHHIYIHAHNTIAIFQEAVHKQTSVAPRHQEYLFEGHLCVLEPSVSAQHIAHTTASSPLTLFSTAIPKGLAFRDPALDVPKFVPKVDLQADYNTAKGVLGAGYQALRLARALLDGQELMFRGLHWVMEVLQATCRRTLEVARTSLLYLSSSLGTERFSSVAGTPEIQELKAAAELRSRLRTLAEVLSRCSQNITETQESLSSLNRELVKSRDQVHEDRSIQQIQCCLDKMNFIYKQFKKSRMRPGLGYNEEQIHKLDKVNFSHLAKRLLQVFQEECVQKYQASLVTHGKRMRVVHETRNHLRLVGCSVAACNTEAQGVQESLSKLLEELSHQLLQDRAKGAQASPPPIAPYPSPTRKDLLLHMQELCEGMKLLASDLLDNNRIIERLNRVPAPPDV
Text: as §1

IR(h) = target: T7, IR(h) (Homo sapiens, UniProt P06213); assay: biochemical; design: Eurofins KinaseProfiler panel of 60 kinases, per cent inhibition
T7 construct: gene INSR
T7 sequence (P06213 whole entry): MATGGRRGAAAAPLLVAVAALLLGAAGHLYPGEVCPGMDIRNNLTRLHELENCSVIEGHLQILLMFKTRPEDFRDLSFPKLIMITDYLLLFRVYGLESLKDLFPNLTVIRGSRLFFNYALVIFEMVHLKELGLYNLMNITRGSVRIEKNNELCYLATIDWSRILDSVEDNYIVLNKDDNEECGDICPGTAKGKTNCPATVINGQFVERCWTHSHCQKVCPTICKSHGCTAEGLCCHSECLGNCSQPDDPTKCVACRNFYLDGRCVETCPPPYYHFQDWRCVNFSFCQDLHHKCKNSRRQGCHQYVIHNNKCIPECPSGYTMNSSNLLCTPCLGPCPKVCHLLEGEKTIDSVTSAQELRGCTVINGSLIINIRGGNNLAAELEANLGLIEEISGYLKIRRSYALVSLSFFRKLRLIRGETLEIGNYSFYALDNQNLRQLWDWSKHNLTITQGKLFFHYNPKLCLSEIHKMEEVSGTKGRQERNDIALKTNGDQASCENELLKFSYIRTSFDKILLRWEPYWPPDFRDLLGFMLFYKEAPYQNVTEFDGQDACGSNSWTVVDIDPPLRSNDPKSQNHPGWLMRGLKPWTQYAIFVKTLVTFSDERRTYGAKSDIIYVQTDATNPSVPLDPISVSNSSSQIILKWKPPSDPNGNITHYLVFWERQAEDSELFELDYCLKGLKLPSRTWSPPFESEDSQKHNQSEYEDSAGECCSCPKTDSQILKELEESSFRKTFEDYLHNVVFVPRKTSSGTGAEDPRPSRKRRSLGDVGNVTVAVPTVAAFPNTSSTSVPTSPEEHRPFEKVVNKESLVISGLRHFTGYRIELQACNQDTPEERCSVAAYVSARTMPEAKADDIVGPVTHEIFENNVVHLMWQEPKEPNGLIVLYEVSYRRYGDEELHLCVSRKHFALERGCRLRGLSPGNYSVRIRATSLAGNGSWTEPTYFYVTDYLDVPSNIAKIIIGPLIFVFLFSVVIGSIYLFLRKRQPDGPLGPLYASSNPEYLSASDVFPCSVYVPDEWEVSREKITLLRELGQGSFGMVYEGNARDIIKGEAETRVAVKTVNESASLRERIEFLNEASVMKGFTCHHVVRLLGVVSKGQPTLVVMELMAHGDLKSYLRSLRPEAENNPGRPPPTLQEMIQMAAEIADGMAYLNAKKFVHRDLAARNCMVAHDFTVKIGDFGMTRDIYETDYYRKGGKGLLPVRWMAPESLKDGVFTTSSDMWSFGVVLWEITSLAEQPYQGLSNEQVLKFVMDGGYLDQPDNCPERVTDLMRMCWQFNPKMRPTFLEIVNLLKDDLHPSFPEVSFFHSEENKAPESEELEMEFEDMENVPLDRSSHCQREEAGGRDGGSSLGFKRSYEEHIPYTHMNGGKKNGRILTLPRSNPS
Text: as §1

MELK(h) = MELK(h) (Homo sapiens, UniProt Q14680); assay: biochemical; design: Eurofins KinaseProfiler panel of 60 kinases, per cent inhibition
MELK(h), sequence (Q14680 whole entry): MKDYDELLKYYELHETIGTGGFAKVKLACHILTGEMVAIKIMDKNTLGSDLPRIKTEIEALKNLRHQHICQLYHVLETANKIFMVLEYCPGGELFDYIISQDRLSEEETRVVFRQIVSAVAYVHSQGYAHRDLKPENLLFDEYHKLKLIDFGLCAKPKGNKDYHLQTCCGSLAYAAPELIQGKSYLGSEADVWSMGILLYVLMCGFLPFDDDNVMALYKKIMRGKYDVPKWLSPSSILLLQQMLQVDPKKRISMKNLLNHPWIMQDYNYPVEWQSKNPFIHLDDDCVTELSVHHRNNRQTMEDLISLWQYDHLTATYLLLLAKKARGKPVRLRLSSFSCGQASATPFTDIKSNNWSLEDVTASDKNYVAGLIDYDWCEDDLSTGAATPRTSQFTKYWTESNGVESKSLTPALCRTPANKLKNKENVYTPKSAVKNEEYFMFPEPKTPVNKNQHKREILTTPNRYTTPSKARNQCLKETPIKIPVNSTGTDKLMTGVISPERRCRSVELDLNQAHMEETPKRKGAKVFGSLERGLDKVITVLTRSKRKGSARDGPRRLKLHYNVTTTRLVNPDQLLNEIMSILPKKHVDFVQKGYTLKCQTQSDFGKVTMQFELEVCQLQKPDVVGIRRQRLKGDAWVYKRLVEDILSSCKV
Text: as §1

PKCβII(h) = target: T8, PKCβII(h) (Homo sapiens, UniProt P05771); assay: biochemical; design: Eurofins KinaseProfiler panel of 60 kinases, per cent inhibition
T8 construct: gene PRKCB; isoform beta II
T8 sequence (P05771 whole entry, canonical isoform): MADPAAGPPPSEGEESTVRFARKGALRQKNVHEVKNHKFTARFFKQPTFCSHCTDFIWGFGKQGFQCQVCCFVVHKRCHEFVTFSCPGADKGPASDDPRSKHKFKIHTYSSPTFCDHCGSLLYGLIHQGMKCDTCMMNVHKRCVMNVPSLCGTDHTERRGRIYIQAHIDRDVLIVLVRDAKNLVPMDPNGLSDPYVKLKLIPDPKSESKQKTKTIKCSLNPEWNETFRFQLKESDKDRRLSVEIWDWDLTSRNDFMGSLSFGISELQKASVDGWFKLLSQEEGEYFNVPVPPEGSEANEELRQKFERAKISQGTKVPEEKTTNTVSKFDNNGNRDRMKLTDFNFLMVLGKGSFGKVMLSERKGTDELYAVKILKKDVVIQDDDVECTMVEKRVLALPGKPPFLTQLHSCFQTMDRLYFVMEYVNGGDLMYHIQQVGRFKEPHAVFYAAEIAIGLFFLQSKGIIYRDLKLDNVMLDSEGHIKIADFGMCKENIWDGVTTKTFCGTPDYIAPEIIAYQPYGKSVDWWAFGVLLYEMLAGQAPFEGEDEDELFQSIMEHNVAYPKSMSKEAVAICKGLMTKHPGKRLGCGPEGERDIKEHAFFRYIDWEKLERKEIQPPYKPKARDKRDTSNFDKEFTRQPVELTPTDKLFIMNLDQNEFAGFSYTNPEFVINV
Text: as §1

PKCε(h) = target: T9, PKCε(h) (Homo sapiens, UniProt Q02156); assay: biochemical; design: Eurofins KinaseProfiler panel of 60 kinases, per cent inhibition
T9 construct: gene PRKCE
Text: as §1

SAPK2a(h) = target: T10, SAPK2a(h) (Homo sapiens, UniProt Q16539); assay: biochemical; design: Eurofins KinaseProfiler panel of 60 kinases, per cent inhibition
T10 construct: gene MAPK14
Text: as §1

SAPK3(h) = target: T11, SAPK3(h) (Homo sapiens, UniProt P53778); assay: biochemical; design: Eurofins KinaseProfiler panel of 60 kinases, per cent inhibition
T11 construct: gene MAPK12
Text: as §1

With CCN1CCOc2nc(N3CCOCC3)nc(-c3ccc(NC(=O)OC)cc3)c2C1=O [Compound A] as the molecule, how does the “% inhibition at 10 μM” value (mTOR) read?
Its value is 48.

And the pIC50 (p38δ)?
Its pIC50 is 6.42.

And the pIC50 (p38α)?
Its pIC50 is < 4.52.

And the pIC50 (p38γ (SAPK3))?
Its pIC50 is 6.15.

What about the inhibition at 1 µM (ALK(h)) of the same molecule?
Its inhibition at 1 µM is 4%.

And the inhibition at 10 µM (ALK(h))?
Its inhibition at 10 µM is 0%.

And the inhibition at 1 µM (AMPKα2(h))?
The inhibition at 1 µM was -5%.

What about the inhibition at 10 µM (AMPKα2(h)) of the same molecule?
The inhibition at 10 µM was 5%.

And the inhibition at 1 µM (CDK9/cyclin T1(h))?
Its inhibition at 1 µM is -16%.

And the inhibition at 10 µM (CDK9/cyclin T1(h))?
The inhibition at 10 µM was 3%.

What about the inhibition at 1 µM (Flt1(h)) of the same molecule?
The inhibition at 1 µM was -30%.

And the inhibition at 10 µM (Flt1(h))?
Its inhibition at 10 µM is -28%.

What about the inhibition at 1 µM (Flt3(h)) of the same molecule?
Its inhibition at 1 µM is -30%.

And the inhibition at 10 µM (Flt3(h))?
Its inhibition at 10 µM is -25%.

And the inhibition at 1 µM (GSK3β(h))?
Its inhibition at 1 µM is 1%.

And the inhibition at 10 µM (GSK3β(h))?
Its inhibition at 10 µM is 12%.

What about the inhibition at 1 µM (Hck(h) activated) of the same molecule?
Its inhibition at 1 µM is -5%.

What about the inhibition at 10 µM (Hck(h) activated) of the same molecule?
The inhibition at 10 µM was 5%.

What about the inhibition at 1 µM (IKKε(h)) of the same molecule?
The inhibition at 1 µM was 16%.

And the inhibition at 10 µM (IKKε(h))?
Its inhibition at 10 µM is 18%.

What about the inhibition at 1 µM (IR(h)) of the same molecule?
Its inhibition at 1 µM is -21%.

What about the inhibition at 10 µM (IR(h)) of the same molecule?
Its inhibition at 10 µM is -14%.

What about the inhibition at 1 µM (MELK(h)) of the same molecule?
The inhibition at 1 µM was 2%.

What about the inhibition at 10 µM (MELK(h)) of the same molecule?
Its inhibition at 10 µM is 9%.

And the inhibition at 1 µM (PKCβII(h))?
The inhibition at 1 µM was 0%.

And the inhibition at 10 µM (PKCβII(h))?
Its inhibition at 10 µM is 1%.

What about the inhibition at 1 µM (PKCε(h)) of the same molecule?
The inhibition at 1 µM was 8%.

What about the inhibition at 10 µM (PKCε(h)) of the same molecule?
The inhibition at 10 µM was 12%.

What about the inhibition at 1 µM (SAPK2a(h)) of the same molecule?
The inhibition at 1 µM was -16%.

And the inhibition at 10 µM (SAPK2a(h))?
The inhibition at 10 µM was 9%.

And the inhibition at 1 µM (SAPK3(h))?
Its inhibition at 1 µM is 11%.
